Assay [1] deals with T1, OB-Rb (Mus musculus, UniProt P48356).
T1 construct: full-length leptin receptor (OB-Rb), the receptor isoform predominantly expressed in the hypothalamus; expressed in transfected cells; host or cells: GT1-7
T1 sequence (P48356 22-1162): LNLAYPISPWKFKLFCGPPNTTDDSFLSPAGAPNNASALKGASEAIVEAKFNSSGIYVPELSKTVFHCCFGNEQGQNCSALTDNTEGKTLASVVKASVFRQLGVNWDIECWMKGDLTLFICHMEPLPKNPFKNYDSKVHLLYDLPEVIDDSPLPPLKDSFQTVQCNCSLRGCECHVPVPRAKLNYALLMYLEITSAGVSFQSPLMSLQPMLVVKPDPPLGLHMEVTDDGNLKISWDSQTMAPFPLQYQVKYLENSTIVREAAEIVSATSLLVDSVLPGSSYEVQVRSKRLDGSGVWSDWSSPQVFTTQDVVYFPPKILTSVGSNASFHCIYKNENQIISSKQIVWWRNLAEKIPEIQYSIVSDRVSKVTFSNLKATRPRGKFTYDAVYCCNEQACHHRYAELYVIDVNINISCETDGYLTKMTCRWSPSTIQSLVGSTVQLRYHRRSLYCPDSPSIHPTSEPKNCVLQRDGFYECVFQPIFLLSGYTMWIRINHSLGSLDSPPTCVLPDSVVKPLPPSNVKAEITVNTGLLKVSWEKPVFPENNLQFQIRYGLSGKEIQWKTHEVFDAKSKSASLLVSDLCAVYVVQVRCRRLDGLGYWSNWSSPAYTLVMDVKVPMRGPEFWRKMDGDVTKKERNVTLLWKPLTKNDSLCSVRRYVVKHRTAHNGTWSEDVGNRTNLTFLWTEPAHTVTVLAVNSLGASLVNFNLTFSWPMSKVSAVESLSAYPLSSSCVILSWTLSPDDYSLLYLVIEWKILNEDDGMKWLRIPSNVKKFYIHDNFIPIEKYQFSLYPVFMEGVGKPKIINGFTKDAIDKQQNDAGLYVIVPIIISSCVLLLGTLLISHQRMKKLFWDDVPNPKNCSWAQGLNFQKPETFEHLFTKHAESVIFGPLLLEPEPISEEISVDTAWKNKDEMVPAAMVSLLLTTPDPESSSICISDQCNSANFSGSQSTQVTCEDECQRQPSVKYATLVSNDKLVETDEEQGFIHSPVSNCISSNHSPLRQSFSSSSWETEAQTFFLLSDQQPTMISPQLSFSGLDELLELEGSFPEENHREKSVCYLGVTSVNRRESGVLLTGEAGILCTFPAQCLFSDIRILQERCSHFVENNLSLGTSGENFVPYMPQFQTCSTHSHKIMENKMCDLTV
Description: SEAP reporter gene signal transduction assay in GT1–7 cells cotransfected with HRRE-SEAP and OB-Rb. It counts as cell-based. As to conditions: peptide 1 to 250 uM, 24 h. The source says:
Initial experiments to determine the mechanism of action of LEP(116–130) utilized two highly sensitive in vitro bioassays routinely used to assess leptin binding and receptor activation (see e.g., White, et al., 1997. Proc. Natl. Acad. Sci. U.S.A. 94: 10657–10662). An alkaline phosphatase (“AP”)-leptin (“OB”) fusion protein (“AP-OB”) was used to measure inhibition of leptin binding in the absence or presence of recombinant mouse leptin (positive control) or peptide, by COS-7 cells transfected with the long (signaling) form of the mouse OB receptor (“OB-RL”). Signal transduction assays were done in GT1–7 cells cotransfected with AP reporter and OB-RL constructs. Secreted alkaline phosphatase (“SEAP”) activity in response to stimulation with mouse leptin or peptide was measured by chemiluminescence.
Two days after transfection, the cells were stimulated with mouse leptin or leptin-related synthetic peptides for 24 hours. Growth media were harvested and SEAP activity was determined by chemiluminescence as described for AP-OB binding studies.
COS-7 and GT1–7 cells were cultured in DMEM supplemented with 10% fetal bovine serum, and transfected by the lipofectamine method. […] Supernatants were collected and SEAP reporter activities were measured by chemiluminescence using the GreatEscApe alkaline phosphatase detection kit as described by the manufacturer (CLONTECH). […]
For orientation: In a reporter assay the amount or activity of a reporter protein is the signal.

Assay [2] can be described thus: 28-day ip study of body weight and food intake in female C57BL/6J ob/ob mice. It counts as in vivo, mouse. As to conditions: 1 mg per day ip, 28 days. The source says: In order to examine this possibility, six overlapping peptide amides, which corresponded to amino acid residues 106 to 167 of mouse leptin, were synthesized and their effects on body weight and food intake in female C57BL/6J ob/ob mice were subsequently assessed.

For assay [3] the following is noted: db/db mice, 1 mg/day ip.
Description: Peptide administration: LEP(116–130) and LEP(146–160) peptide amides were dissolved in sterile phosphate buffered saline (PBS, pH 7.2) and administered daily for 7 days between 1500 and 1600 h in a single 1 mg/0.2 ml ip injection. Control mice received 0.2 ml PBS (ip) only.
Feeding and weighing schedule: On day one of the study, and on each day thereafter, 200 g of pelleted rodent diet (Prolab Rat, Mouse, Hamster 3000, St.Louis Mo.; 22% crude protein, 5% crude fat, 5% fiber, 6% ash, 2.5% additional minerals) was added to the hopper on each side of the cages between 0900 and 1100 h. Food remaining after 24 h was weighed to the nearest 0.1 g, and the average amount of food consumed per mouse was calculated (mean±SEM, n=6). The mice were allowed water ad libitum throughout the study, and were weighed once daily between 0900 and 1100 h.
Each value represents the mean±SEM change in body weight or food intake for a group of six mice.
A short description of assay [4]: Epitope mapping: body weight and food intake in female C57BL/6J ob/ob mice, 7 daily ip injections. The assay is classed as in vivo, mouse. As to conditions: 1 mg/day ip, 7 days. The method, then:
Animal procedures. Feeding and weighing schedules, as well as peptide administration protocols, are as described in EXAMPLE 8, supra.
Statistical analysis. Changes in body weight and differences in food intake between peptide-treated and vehicle-injected control mice were analyzed by analysis of variance (ANOVA) and considered significant when P<0.05.
Female ob/ob mice (n=6 per group) were given a single ip injection of 0.2 ml of vehicle (PBS, pH 7.2) or leptin-related synthetic peptide amide in 0.2 ml PBS for 7 consecutive days. Daily changes in body weight compared to pretreatment weights in both vehicle-injected control and peptide-treated mice are shown in FIG. 4. […] There was no evidence of weight loss in response to peptide treatment.

Read-outs that look alike come from different tables or passages of the source.

For the sequence “A L S R L Q G S L Q D I L Q Q (ALSRLQGSLQDILQQ) [LEP(146–160)]”, in assay [1], the “Stimulation of SEAP reporter activity” value is listed as “incapable of inducing an increase in reporter gene activity”. Besides, the “Weight gain and food intake vs vehicle” value in assay [2] is “continued to consume food and gain weight at a rate comparable to vehicle-injected control mice”. The “Weight after 7 days” value in assay [3] is recorded as 36.2 ± 1.4 g. Moreover, in assay [3] (7 days), the Cumulative food intake was 53.5 ± 0.3 gm/mouse; the “Effect on body weight gain and food intake” value is “had no effect on either body weight”; the “Percent increase (body weight)” value was “+18.3%”; the Weight increase entry is recorded as “+5.6 g”. Also, in assay [4], the Cumulative food intake turned out to be 40.5 ± 1.0 gm/mouse, the “Percent heavier (+) or lighter (−) than initial weight” value is given as “+28.0%” and the “Weight gain (+) or loss (−)” value is “+6.8 g”.
